Key:
Assay in all cases: Kinase panel profiling
Type in all cases: biochemical
Conditions in all cases: 10 μM ATP
IRR/INSRR = target: T1, IRR/INSRR (Homo sapiens, UniProt P14616)
T1 construct: purchased Reaction Biology Corp
Description: (§1) Kinase panel profiling was conducted by Reaction Biology Corp. (San Diego, CA, USA). A single dose (1.0 μM) of 6r was tested against 371 recombinant human kinases in the presence of 10 μM ATP.

ULK2 = target: T2, ULK2 (Homo sapiens, UniProt Q8IYT8)
T2 construct: purchased Reaction Biology Corp
Description: as §1

PKD2/PRKD2 = target: T3, PKD2/PRKD2 (Homo sapiens, UniProt Q9BZL6)
T3 construct: purchased Reaction Biology Corp
Description: as §1

CK1a1 = target: T4, CK1a1 (Homo sapiens, UniProt P48729)
T4 construct: purchased Reaction Biology Corp
Description: as §1

PKCiota = target: T5, PKCiota (Homo sapiens, UniProt P41743)
T5 construct: purchased Reaction Biology Corp
T5 sequence (P41743 whole entry): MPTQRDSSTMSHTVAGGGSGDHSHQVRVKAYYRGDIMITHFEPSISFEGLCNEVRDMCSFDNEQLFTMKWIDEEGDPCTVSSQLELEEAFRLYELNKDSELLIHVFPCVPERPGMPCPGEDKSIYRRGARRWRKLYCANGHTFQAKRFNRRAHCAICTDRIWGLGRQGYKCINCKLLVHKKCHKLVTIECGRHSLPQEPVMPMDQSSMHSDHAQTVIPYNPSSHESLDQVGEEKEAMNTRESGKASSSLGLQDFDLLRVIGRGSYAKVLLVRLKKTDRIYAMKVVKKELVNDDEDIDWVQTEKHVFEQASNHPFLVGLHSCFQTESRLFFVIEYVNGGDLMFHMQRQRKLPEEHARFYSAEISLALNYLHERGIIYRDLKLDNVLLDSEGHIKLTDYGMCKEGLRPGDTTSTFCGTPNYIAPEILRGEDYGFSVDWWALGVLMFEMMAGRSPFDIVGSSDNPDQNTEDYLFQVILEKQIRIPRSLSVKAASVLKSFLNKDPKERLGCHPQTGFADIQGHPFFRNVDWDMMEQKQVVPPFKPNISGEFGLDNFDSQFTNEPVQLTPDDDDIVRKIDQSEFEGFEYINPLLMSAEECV
Description: as §1

GSK3b = target: T6, GSK3b (Homo sapiens, UniProt P49841)
T6 construct: purchased Reaction Biology Corp
T6 sequence (P49841 whole entry): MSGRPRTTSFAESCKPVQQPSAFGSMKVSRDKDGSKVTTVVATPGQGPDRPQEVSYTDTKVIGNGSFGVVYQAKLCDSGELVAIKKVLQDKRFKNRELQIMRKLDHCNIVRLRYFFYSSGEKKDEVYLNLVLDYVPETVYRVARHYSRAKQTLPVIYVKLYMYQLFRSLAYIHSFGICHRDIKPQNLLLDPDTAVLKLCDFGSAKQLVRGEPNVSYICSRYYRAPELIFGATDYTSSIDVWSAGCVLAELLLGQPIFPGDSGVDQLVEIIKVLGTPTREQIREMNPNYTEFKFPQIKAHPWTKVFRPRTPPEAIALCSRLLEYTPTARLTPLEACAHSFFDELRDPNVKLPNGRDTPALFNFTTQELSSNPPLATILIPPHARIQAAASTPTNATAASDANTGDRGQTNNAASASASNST
Description: as §1

CAMK2g = target: T7, CAMK2g (Homo sapiens, UniProt Q13555)
T7 construct: purchased Reaction Biology Corp
Description: as §1

CDK9/cyclin T2 = target: T8, CDK9/cyclin T2 (Homo sapiens, UniProt P50750)
T8 construct: purchased Reaction Biology Corp
Description: as §1

SLK/STK2 = target: T9, SLK/STK2 (Homo sapiens, UniProt Q9H2G2)
T9 construct: purchased Reaction Biology Corp
Description: as §1

PKCa = target: T10, PKCa (Homo sapiens, UniProt P17252)
T10 construct: purchased Reaction Biology Corp
Description: as §1

PHKg1 = target: T11, PHKg1 (Homo sapiens, UniProt Q16816)
T11 construct: purchased Reaction Biology Corp
T11 sequence (Q16816 whole entry): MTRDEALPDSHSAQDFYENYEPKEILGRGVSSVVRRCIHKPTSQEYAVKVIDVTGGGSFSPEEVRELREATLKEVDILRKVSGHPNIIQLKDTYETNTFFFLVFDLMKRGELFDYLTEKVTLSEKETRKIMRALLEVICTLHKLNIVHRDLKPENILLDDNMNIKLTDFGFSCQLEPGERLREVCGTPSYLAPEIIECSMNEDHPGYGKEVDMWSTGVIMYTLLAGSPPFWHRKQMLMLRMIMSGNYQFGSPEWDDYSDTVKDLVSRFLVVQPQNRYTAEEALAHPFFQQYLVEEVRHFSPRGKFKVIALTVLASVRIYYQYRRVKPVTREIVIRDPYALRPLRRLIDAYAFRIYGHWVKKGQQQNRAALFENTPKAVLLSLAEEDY
Description: as §1

ABL1 = target: T12, ABL1 (Homo sapiens, UniProt P00519)
T12 construct: purchased Reaction Biology Corp
Description: as §1

ZAK/MLTK = target: T13, ZAK/MLTK (Homo sapiens, UniProt Q9NYL2)
T13 construct: purchased Reaction Biology Corp
Description: as §1

YSK4/MAP3K19 = target: T14, YSK4/MAP3K19 (Homo sapiens, UniProt Q56UN5)
T14 construct: purchased Reaction Biology Corp
Description: as §1

PHKg2 = target: T15, PHKg2 (Homo sapiens, UniProt P15735)
T15 construct: purchased Reaction Biology Corp
T15 sequence (P15735 whole entry): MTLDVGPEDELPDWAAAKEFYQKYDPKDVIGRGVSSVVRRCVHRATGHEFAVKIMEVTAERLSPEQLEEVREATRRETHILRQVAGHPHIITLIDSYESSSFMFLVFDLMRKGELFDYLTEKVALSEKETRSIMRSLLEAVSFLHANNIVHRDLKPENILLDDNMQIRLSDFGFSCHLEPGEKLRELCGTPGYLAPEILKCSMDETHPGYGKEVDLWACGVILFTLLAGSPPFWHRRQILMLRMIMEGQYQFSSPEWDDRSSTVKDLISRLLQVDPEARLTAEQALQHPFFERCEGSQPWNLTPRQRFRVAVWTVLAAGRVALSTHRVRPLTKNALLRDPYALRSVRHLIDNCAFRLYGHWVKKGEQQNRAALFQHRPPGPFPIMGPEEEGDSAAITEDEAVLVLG
Description: as §1

BRAF = target: T16, BRAF (Homo sapiens, UniProt P15056)
T16 construct: purchased Reaction Biology Corp
Description: as §1

RIPK2 = target: T17, RIPK2 (Homo sapiens, UniProt O43353)
T17 construct: purchased Reaction Biology Corp
Description: as §1

MAPKAPK3 = target: T18, MAPKAPK3 (Homo sapiens, UniProt Q16644)
T18 construct: purchased Reaction Biology Corp
Description: as §1

P38g = target: T19, P38g (Homo sapiens, UniProt P53778)
T19 construct: purchased Reaction Biology Corp
Description: as §1

VRK1 = target: T20, VRK1 (Homo sapiens, UniProt Q99986)
T20 construct: purchased Reaction Biology Corp
Description: as §1

IGF1R = target: T21, IGF1R (Homo sapiens, UniProt P08069)
T21 construct: purchased Reaction Biology Corp
T21 sequence (P08069 31-1367): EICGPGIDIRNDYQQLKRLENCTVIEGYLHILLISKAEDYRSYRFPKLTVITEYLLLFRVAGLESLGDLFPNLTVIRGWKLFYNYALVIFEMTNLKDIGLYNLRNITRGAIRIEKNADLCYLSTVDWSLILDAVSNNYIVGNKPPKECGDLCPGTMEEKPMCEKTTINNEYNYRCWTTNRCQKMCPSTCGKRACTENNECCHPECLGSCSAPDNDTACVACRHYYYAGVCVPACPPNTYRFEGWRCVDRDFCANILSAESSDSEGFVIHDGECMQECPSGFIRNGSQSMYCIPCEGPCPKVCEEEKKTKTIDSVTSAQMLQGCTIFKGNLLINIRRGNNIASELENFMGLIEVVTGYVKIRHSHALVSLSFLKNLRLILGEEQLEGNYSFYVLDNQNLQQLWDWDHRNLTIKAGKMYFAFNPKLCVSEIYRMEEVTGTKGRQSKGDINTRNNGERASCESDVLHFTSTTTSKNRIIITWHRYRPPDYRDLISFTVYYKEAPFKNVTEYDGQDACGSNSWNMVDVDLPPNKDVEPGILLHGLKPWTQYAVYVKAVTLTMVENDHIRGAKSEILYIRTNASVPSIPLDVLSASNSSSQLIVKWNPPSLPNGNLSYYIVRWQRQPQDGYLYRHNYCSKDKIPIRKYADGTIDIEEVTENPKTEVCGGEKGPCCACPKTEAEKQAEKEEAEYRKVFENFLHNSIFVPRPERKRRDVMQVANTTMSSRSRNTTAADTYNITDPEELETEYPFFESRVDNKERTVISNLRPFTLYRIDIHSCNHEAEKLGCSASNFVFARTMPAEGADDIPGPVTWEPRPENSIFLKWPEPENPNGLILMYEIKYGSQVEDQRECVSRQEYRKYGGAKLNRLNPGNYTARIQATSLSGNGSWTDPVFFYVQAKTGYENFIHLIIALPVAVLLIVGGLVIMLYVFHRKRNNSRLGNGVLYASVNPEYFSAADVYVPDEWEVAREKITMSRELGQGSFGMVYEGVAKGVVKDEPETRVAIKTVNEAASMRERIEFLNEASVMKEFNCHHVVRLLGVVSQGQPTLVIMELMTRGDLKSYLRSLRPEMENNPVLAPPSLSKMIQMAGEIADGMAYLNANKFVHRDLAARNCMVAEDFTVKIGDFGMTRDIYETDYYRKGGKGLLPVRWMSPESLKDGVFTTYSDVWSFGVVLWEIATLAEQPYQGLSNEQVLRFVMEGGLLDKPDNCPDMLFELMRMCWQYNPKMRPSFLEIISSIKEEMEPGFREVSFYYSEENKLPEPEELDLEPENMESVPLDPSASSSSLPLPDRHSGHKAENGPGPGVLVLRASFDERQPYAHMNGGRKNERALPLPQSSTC
Description: as §1

PLK1 = target: T22, PLK1 (Homo sapiens, UniProt P53350)
T22 construct: purchased Reaction Biology Corp
Description: as §1

TIE2/TEK = target: T23, TIE2/TEK (Homo sapiens, UniProt Q02763)
T23 construct: purchased Reaction Biology Corp
Description: as §1

JAK2 = target: T24, JAK2 (Homo sapiens, UniProt O60674)
T24 construct: purchased Reaction Biology Corp
Description: as §1

PKN2/PRK2 = target: T25, PKN2/PRK2 (Homo sapiens, UniProt Q16513)
T25 construct: purchased Reaction Biology Corp
Description: as §1

DCAMKL1 = target: T26, DCAMKL1 (Homo sapiens, UniProt O15075)
T26 construct: purchased Reaction Biology Corp
T26 sequence (O15075 whole entry): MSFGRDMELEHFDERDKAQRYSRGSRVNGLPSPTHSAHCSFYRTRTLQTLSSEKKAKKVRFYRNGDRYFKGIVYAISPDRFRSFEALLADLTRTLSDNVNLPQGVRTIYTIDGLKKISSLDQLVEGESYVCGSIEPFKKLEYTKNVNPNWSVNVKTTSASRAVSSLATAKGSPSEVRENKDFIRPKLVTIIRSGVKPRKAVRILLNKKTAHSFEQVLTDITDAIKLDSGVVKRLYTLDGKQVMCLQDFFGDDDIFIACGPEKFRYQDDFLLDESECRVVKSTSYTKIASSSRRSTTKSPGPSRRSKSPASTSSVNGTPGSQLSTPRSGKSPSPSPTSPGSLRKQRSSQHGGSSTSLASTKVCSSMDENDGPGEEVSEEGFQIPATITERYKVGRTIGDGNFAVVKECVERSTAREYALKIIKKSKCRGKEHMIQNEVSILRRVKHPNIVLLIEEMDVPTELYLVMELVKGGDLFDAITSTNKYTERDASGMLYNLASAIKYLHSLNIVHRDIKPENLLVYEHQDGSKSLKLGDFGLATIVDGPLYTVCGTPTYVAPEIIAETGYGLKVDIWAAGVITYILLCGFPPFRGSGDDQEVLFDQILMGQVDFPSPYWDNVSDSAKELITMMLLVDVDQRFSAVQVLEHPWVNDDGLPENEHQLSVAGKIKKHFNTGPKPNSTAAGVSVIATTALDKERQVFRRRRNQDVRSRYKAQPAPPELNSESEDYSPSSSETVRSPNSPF
Description: as §1

PKCmu/PRKD1 = target: T27, PKCmu/PRKD1 (Homo sapiens, UniProt Q15139)
T27 construct: purchased Reaction Biology Corp
Description: as §1

HIPK2 = target: T28, HIPK2 (Homo sapiens, UniProt Q9H2X6)
T28 construct: purchased Reaction Biology Corp
Description: as §1

LATS2 = target: T29, LATS2 (Homo sapiens, UniProt Q9NRM7)
T29 construct: purchased Reaction Biology Corp
Description: as §1

CDK1/cyclin B = target: T30, CDK1/cyclin B (Homo sapiens, UniProt P06493)
T30 construct: purchased Reaction Biology Corp
Description: as §1

LKB1 = target: T31, LKB1 (Homo sapiens, UniProt Q15831)
T31 construct: purchased Reaction Biology Corp
Description: as §1

TYRO3/SKY = target: T32, TYRO3/SKY (Homo sapiens, UniProt Q06418)
T32 construct: purchased Reaction Biology Corp
Description: as §1

BTK = target: T33, BTK (Homo sapiens, UniProt Q06187)
T33 construct: purchased Reaction Biology Corp
Description: as §1

TLK1 = target: T34, TLK1 (Homo sapiens, UniProt Q9UKI8)
T34 construct: purchased Reaction Biology Corp
Description: as §1

STK16 = target: T35, STK16 (Homo sapiens, UniProt O75716)
T35 construct: purchased Reaction Biology Corp
Description: as §1

NLK = target: T36, NLK (Homo sapiens, UniProt Q9UBE8)
T36 construct: purchased Reaction Biology Corp
Description: as §1

YES/YES1 = target: T37, YES/YES1 (Homo sapiens, UniProt P07947)
T37 construct: purchased Reaction Biology Corp
Description: as §1

VRK2 = target: T38, VRK2 (Homo sapiens, UniProt Q86Y07)
T38 construct: purchased Reaction Biology Corp
Description: as §1

PKN1/PRK1 = target: T39, PKN1/PRK1 (Homo sapiens, UniProt Q16512)
T39 construct: purchased Reaction Biology Corp
T39 sequence (Q16512 whole entry): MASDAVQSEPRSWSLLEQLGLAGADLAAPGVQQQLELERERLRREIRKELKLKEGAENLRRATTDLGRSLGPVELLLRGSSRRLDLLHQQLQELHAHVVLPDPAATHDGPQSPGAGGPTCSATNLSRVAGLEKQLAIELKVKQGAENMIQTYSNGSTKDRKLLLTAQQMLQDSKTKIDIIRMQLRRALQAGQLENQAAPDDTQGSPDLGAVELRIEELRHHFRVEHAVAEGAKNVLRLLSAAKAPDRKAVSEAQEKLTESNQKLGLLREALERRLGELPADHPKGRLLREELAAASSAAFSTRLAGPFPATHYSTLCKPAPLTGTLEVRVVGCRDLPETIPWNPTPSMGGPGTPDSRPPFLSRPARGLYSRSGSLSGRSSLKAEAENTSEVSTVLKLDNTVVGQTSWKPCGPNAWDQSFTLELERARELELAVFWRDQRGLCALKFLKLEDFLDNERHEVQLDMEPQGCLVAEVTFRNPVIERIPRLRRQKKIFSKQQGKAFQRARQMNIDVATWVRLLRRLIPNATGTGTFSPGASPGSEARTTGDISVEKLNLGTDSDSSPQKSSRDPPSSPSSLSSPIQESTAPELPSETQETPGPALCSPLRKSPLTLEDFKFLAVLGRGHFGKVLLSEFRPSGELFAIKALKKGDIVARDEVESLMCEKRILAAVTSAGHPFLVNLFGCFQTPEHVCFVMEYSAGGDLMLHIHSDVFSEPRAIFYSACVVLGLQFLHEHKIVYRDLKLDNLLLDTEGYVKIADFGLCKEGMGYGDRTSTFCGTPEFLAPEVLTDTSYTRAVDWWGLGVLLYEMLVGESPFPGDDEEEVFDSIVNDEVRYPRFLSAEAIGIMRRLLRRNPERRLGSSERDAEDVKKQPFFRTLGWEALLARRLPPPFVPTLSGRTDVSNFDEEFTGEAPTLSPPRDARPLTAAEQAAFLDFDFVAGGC
Description: as §1

KSR1 = target: T40, KSR1 (Homo sapiens, UniProt Q8IVT5)
T40 construct: purchased Reaction Biology Corp
Description: as §1

CDK5/p35 = target: T41, CDK5/p35 (Homo sapiens, UniProt Q00535)
T41 construct: purchased Reaction Biology Corp
Description: as §1

MEKK3 = target: T42, MEKK3 (Homo sapiens, UniProt Q99759)
T42 construct: purchased Reaction Biology Corp
Description: as §1

Cc1ccc(NC(=O)c2ccc(CN3CCN(C)CC3)c(C(F)(F)F)c2)cc1-c1cnc2sc(N)nc2c1 [6r]
inhibition at 1 µM (IRR/INSRR): 0% | inhibition at 1 µM (ULK2): 0% | inhibition at 1 µM (PKD2/PRKD2): 28.6% | inhibition at 1 µM (CK1a1): 13.7% | inhibition at 1 µM (PKCiota): 8.6% | inhibition at 1 µM (GSK3b): 12.9% | inhibition at 1 µM (CAMK2g): 0% | inhibition at 1 µM (CDK9/cyclin T2): 0% | inhibition at 1 µM (SLK/STK2): 37.8% | inhibition at 1 µM (PKCa): 4.2% | inhibition at 1 µM (PHKg1): 19.6% | inhibition at 1 µM (ABL1): 60.8% | inhibition at 1 µM (ZAK/MLTK): 50% | inhibition at 1 µM (YSK4/MAP3K19): 0% | inhibition at 1 µM (PHKg2): 5% | inhibition at 1 µM (BRAF): 97.4% | inhibition at 1 µM (RIPK2): 20.6% | inhibition at 1 µM (MAPKAPK3): 10.7% | inhibition at 1 µM (P38g): 0% | inhibition at 1 µM (VRK1): 1.6% | inhibition at 1 µM (IGF1R): 0% | inhibition at 1 µM (PLK1): 0% | inhibition at 1 µM (TIE2/TEK): 24.4% | inhibition at 1 µM (JAK2): 2% | inhibition at 1 µM (PKN2/PRK2): 0% | inhibition at 1 µM (DCAMKL1): 1.5% | inhibition at 1 µM (PKCmu/PRKD1): 15.9% | inhibition at 1 µM (HIPK2): 0.5% | inhibition at 1 µM (LATS2): 2.1% | inhibition at 1 µM (CDK1/cyclin B): 0% | inhibition at 1 µM (LKB1): 0% | inhibition at 1 µM (TYRO3/SKY): 14.6% | inhibition at 1 µM (BTK): 4.7% | inhibition at 1 µM (TLK1): 0% | inhibition at 1 µM (STK16): 3.6% | inhibition at 1 µM (NLK): 7.3% | inhibition at 1 µM (YES/YES1): 77% | inhibition at 1 µM (VRK2): 20.1% | inhibition at 1 µM (PKN1/PRK1): 15.1% | inhibition at 1 µM (KSR1): 5.5% | inhibition at 1 µM (CDK5/p35): 0.7% | inhibition at 1 µM (MEKK3): 4.9%
